Two compounds from ChEMBL document CHEMBL1201862, “PubChem BioAssay data set” (2004) can be followed below.

The target of assay [1] is T1, Sentrin-specific protease 7 (Homo sapiens, UniProt Q9BQF6).
T1 sequence (Q9BQF6 whole entry): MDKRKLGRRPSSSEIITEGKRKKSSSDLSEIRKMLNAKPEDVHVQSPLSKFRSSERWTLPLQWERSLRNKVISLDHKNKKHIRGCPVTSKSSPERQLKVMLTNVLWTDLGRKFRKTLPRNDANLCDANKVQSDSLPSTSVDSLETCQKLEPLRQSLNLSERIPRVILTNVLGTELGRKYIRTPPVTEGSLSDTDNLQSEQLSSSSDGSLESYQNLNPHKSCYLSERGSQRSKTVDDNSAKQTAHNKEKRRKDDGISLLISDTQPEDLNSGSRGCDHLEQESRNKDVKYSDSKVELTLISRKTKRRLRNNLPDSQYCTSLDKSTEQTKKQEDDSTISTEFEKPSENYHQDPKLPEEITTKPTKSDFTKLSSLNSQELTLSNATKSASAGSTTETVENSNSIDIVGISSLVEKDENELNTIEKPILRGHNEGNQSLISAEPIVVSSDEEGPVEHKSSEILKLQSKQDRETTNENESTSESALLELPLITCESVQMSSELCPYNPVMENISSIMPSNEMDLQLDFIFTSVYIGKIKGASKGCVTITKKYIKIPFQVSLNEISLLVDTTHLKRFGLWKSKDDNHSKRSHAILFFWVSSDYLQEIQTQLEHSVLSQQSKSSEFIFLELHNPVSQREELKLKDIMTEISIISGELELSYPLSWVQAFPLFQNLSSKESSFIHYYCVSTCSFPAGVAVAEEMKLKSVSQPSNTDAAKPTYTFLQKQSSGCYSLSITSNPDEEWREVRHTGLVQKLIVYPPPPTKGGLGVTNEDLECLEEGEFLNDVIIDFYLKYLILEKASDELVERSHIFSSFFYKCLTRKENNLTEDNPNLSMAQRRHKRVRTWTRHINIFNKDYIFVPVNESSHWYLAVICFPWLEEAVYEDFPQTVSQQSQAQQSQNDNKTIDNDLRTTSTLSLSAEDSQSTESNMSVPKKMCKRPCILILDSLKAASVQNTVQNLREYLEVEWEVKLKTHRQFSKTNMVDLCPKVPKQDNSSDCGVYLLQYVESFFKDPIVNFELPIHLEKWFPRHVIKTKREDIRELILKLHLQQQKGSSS
In kind it is functional.

For assay [2], the target named is T1, Sentrin-specific protease 7. Briefly: inhibition of human SENP7 cleavage activity – biochemical, luminescence, SAR follow-up (AID 504497). Type of assay: functional.
In another assay the target is Cytochrome P450 2C19 (Homo sapiens, UniProt P33261). The experiment in a line: Cytochrome panel assay with activity outcomes. Panel member name: p450-cyp2c19 Compounds with AC50 equal or less than 10 uM are considered active. Type of assay: functional. The note with it: read-out: AC50.
Cytochrome P450 2C19, sequence (P33261 whole entry): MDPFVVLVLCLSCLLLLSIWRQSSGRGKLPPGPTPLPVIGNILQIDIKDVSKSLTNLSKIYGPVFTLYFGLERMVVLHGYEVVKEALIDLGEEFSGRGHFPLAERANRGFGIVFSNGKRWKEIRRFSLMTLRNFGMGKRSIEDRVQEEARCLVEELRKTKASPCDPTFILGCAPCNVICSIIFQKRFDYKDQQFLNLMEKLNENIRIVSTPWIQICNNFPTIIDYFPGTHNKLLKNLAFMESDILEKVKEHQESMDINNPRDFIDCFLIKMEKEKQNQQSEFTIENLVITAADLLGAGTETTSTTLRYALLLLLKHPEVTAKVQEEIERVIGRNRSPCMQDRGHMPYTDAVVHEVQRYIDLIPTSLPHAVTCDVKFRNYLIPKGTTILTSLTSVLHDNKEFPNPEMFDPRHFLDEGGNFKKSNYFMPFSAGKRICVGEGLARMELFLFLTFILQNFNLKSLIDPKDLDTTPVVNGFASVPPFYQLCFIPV
Assay [3] addresses T2, Caspase-3 (Homo sapiens, UniProt P42574).
T2 sequence (P42574 whole entry): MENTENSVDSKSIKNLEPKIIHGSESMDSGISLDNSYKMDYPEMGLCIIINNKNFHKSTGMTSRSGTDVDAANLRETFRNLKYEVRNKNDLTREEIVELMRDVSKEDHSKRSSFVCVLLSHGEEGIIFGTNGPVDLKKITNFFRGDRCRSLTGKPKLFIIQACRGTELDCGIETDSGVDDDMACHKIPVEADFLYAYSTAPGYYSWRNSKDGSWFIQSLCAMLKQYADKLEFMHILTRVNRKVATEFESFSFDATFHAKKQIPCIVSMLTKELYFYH
In kind it is functional.

Another assay has as its target Cytochrome P450 2C9 (Homo sapiens, UniProt P11712).
For assay [4], the target named is T3, Sentrin-specific protease 8 (Homo sapiens, UniProt Q96LD8).
T3 sequence (Q96LD8 whole entry): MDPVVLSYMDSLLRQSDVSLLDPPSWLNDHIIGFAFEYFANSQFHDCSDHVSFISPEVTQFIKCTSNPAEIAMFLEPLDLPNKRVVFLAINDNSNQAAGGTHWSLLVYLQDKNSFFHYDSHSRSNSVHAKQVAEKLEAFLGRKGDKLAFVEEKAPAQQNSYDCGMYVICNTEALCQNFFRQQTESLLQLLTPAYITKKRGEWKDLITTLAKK
In kind it is functional.

The target in assay [5] is T3, Sentrin-specific protease 8. The experiment in a line: inhibition of human SENP8 cleavage activity – biochemical, luminescence, SAR follow-up (AID 504501). Type of assay: functional.
Assay [6] deals with T2, Caspase-3. The experiment in a line: SAR Analysis of small molecule inhibitors of Sentrin-specific proteases (SENPs) using a Caspase-3 Selectivity assay. [Related pubchem assays (depositor defined):AID2540, AID2599, AID434973, AID489001]. In kind it is functional.
For assay [7], the target named is T4, Sentrin-specific protease 6 (Homo sapiens, UniProt Q9GZR1).
T4 sequence (Q9GZR1 whole entry): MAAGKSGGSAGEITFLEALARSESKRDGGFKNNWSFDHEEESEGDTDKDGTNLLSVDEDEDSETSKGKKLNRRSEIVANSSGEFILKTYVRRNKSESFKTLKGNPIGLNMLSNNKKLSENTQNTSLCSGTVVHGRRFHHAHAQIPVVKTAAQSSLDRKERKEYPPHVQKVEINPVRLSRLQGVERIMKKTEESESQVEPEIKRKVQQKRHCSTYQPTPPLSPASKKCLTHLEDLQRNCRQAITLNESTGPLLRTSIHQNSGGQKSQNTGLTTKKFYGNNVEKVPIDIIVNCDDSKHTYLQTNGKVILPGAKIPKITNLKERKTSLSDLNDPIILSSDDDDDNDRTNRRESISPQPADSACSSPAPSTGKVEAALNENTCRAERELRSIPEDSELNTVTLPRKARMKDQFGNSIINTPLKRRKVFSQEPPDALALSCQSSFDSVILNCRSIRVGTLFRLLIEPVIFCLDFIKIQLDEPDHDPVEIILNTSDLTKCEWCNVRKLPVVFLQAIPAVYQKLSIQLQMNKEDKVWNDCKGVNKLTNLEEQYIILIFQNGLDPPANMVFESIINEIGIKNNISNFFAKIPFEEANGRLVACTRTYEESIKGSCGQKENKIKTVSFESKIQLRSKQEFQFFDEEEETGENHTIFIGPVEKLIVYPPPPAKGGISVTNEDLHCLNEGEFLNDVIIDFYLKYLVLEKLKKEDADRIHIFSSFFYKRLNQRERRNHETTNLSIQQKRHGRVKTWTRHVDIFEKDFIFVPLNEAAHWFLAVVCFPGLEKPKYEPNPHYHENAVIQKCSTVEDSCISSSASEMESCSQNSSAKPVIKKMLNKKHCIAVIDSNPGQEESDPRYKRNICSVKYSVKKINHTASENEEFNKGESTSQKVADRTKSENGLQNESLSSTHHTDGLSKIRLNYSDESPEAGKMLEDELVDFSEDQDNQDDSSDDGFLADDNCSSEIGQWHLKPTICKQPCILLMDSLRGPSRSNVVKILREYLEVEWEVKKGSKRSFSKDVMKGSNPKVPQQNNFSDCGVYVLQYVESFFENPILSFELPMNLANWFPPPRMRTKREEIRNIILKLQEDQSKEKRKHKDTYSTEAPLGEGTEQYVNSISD
Type of assay: functional.

Another assay addresses Cytochrome P450 2D6 (Homo sapiens, UniProt P10635).
For assay [8], the target named is T4, Sentrin-specific protease 6. Briefly: SAR Analysis of small molecule inhibitors of Sentrin-specific protease 6 (SENP6) using a Luminescent assay. [Related pubchem assays (depositor defined):AID2582, AID2599]. In kind it is functional.
For assay [9], the target named is T5, Mannose-6-phosphate isomerase (Homo sapiens, UniProt P34949).
T5 sequence (P34949 whole entry): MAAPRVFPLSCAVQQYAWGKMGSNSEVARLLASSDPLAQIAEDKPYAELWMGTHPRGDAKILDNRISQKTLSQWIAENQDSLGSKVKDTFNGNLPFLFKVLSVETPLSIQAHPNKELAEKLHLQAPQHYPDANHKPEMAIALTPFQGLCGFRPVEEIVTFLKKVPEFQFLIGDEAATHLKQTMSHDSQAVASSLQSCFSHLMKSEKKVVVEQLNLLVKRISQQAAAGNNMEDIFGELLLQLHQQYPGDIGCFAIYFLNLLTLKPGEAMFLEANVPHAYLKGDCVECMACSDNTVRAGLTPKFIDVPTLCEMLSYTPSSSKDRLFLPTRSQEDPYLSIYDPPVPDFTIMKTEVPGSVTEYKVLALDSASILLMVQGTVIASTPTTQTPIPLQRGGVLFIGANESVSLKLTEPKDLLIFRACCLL
Briefly: MPI enzyme activity inhibition – biochemical, fluorescence intensity, coupled assay, primary screen (AID 1209).

In assay [10] the target is T6, Apoptotic protease-activating factor 1 (Homo sapiens, UniProt O14727).
T6 sequence (O14727 whole entry): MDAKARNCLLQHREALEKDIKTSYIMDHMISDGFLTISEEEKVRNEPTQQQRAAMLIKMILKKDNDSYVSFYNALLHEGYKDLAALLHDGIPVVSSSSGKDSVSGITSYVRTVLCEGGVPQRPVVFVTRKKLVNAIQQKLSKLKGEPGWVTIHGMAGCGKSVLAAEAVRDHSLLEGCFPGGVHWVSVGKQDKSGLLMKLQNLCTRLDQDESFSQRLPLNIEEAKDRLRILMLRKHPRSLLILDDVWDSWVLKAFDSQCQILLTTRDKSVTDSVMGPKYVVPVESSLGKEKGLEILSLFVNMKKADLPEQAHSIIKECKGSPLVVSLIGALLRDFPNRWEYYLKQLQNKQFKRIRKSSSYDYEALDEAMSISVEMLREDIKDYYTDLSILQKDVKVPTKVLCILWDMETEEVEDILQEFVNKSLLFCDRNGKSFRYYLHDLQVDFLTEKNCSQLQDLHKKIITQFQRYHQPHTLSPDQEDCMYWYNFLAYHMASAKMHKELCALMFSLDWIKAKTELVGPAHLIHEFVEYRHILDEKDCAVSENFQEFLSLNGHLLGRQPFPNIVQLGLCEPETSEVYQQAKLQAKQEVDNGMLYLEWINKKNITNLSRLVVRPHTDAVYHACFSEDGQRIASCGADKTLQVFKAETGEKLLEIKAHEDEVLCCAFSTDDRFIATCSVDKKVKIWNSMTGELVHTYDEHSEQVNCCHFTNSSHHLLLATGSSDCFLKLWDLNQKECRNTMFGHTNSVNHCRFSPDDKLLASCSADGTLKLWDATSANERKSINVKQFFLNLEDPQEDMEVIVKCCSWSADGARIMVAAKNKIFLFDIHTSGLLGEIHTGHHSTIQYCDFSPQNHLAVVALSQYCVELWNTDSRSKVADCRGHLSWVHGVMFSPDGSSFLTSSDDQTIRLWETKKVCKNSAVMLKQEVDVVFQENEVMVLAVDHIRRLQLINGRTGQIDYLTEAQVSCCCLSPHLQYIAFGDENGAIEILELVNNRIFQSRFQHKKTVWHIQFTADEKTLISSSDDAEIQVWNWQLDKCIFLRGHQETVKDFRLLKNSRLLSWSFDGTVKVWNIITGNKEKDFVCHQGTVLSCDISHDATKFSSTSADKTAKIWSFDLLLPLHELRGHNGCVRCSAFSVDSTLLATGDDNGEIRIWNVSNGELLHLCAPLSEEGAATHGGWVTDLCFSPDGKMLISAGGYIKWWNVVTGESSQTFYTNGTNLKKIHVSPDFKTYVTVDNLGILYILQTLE
In kind it is functional.

Each structure is given as a SMILES string. Calls of active or inactive are those of the source.

Cytochrome P450 2D6, sequence (P10635 whole entry): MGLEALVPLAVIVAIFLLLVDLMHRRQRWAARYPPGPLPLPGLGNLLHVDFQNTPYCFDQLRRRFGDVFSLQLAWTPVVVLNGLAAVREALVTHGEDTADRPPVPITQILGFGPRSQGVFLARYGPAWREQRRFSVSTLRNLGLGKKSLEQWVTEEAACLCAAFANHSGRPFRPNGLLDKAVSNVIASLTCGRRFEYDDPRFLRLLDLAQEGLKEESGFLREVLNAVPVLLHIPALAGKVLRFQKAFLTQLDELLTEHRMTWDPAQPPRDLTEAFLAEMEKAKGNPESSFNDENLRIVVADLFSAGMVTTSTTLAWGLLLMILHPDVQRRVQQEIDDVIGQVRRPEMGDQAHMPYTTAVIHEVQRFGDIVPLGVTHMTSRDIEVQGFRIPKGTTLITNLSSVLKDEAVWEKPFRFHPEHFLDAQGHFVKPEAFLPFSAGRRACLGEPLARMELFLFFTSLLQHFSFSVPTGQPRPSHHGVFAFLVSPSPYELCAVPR
Cytochrome P450 2C9, sequence (P11712 whole entry): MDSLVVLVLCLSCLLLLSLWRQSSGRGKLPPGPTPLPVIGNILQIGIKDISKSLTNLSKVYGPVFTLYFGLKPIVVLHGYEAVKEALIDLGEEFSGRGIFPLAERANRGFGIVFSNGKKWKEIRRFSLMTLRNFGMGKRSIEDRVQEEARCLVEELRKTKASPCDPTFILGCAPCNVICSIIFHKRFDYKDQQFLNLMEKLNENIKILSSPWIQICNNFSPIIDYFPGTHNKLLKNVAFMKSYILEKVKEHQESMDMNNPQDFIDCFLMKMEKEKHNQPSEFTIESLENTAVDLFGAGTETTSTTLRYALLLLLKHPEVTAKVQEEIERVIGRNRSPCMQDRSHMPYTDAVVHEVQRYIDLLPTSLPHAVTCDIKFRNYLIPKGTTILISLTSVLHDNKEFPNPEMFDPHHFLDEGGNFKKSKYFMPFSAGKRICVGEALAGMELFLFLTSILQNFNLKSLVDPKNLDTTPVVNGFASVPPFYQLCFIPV

By IC50 is commonly meant the concentration at which inhibition is half-maximal. The AC50 is the concentration giving half of the maximal activity seen. `Cc1ccc(/C=C/c2nnc(-c3cccs3)o2)cc1`: the IC50 in assay [1] was > 100 µM (inactive); in assay [2] it was 1.7 µM (active); at Caspase-3 [3], > 100 µM (inactive); in [4], 24.3 µM (active); in assay [5] it was 2.1 µM (active); at Caspase-3 [6], 2 µM (active). Further, the IC50 in assay [7] was > 100 µM (inactive); in [8], 2 µM (active). For the same compound, the AC50 is 25.1 µM (inconclusive) at Cytochrome P450 2C19, 10 µM (inconclusive) at Cytochrome P450 2C9 and 25.1 µM (inconclusive) on Cytochrome P450 2D6.

With `O=C(N/N=C/c1ccc(-c2ccccc2[N+](=O)[O-])o1)c1cccnc1`, the IC50 in assay [9] is > 50 µM (not active); in assay [10], 39.2 µM (active).
